Assay results: patent US20240124408A1 (Sanofi, priority 2020, published 2024)

Assays:
[1] = target: T1, pig TRPM8 (Sus scrofa, UniProt F1SM15); experiment: In vitro pig TRPM8 fluorescence calcium flux assay (recombinant CHO cells, Fluo4-AM, FDSS6000); assay type: cell-based; details: recombinant CHO cells expressing pig TRPM8; menthol-related EC50, normalized to 100 μM menthol
T1 construct: expressed in transfected cells; host or cells: CHO (pcDNA5/FRT/TO vector; hygromycin B and blasticidin selection)
Experimental: (§1) In Vitro Pig and Human TRPM8 Fluorescence Calcium Flux Assays
(§2) For functional expression of TRPM8, the full-length cDNA encoding human (NM_024080) and pig (XM_001927892.1) TRPM8 sequences were subcloned into p658 and pcDNA5/FRT/TO mammalian expression vectors, respectively. Engineered recombinant CHO cell lines expressing human or pig TRPM8 were generated. Culture media was Ham-F12 with 10% FCS for both lines, and for the pig cell line only 400 μg/ml hygromycin B and 30 μg/mL blasticidin were added as selection antibiotics (all reagents were obtained from Invitrogen, Fisher Scientific). Cells were grown in culture flasks up to 80% confluence where they were harvested using accutase (Sigma, MO, USA) to detach the cells by enzymatic dissociation and either seeded directly into assay plates or cryopreserved for future use.
(§3) For calcium flux assays, cells were plated into clear base poly-D-lysine coated 384-well plates (BD Biosciences, NJ USA) at a density of 15,000 cells per well in appropriate culture medium and grown overnight. The following day, all medium was removed then the cells were incubated with 2 μM of Fluo4-AM Dye (Molecular Probes) prepared in complete HBSS assay buffer containing 20 mM HEPES, 0.1% BSA, and 2.5 mM probenecid at room temperature for one hour. Following incubation, plates were inserted into a FDSS6000 instrument (Hamamatsu, Photonics, Japan) instrument, where cells were challenged with compounds of the formula (at varying concentrations) and intracellular calcium was measured kinetically for 3 min after addition.
(§4) This protocol allowed the determination of an EC50 value, from the sixteen-point dose response data, for each compound of the formula tested. Maximal fluorescence intensity achieved upon addition of 100 μM menthol (stock solution prepared in ethanol from solid, Sigma-Aldrich) was exported from the FDSS and further analyzed using IDBS XLFit 5. Data were normalized to the average 100 μM menthol response (maximum control wells) included in each plate. The dose response curves from the average of wells for each data point were analyzed by using nonlinear regression of sigmoidal dose response (formula 205). Finally, the (menthol-related) EC50 values (Half maximal effective concentration) were calculated with the best-fit dose curve determined by IDBS XLFit 5 software.

[2] = target: T2, human TRPM8 (Homo sapiens, UniProt Q7Z2W7); experiment: In vitro human TRPM8 fluorescence calcium flux assay (recombinant CHO cells, Fluo4-AM, FDSS6000); assay type: cell-based; details: recombinant CHO cells expressing human TRPM8; menthol-related EC50, normalized to 100 μM menthol
T2 construct: expressed in transfected cells; host or cells: CHO (p658 mammalian expression vector)
Experimental: as §1, §2, §3, §4

T2 sequence (Q7Z2W7 whole entry): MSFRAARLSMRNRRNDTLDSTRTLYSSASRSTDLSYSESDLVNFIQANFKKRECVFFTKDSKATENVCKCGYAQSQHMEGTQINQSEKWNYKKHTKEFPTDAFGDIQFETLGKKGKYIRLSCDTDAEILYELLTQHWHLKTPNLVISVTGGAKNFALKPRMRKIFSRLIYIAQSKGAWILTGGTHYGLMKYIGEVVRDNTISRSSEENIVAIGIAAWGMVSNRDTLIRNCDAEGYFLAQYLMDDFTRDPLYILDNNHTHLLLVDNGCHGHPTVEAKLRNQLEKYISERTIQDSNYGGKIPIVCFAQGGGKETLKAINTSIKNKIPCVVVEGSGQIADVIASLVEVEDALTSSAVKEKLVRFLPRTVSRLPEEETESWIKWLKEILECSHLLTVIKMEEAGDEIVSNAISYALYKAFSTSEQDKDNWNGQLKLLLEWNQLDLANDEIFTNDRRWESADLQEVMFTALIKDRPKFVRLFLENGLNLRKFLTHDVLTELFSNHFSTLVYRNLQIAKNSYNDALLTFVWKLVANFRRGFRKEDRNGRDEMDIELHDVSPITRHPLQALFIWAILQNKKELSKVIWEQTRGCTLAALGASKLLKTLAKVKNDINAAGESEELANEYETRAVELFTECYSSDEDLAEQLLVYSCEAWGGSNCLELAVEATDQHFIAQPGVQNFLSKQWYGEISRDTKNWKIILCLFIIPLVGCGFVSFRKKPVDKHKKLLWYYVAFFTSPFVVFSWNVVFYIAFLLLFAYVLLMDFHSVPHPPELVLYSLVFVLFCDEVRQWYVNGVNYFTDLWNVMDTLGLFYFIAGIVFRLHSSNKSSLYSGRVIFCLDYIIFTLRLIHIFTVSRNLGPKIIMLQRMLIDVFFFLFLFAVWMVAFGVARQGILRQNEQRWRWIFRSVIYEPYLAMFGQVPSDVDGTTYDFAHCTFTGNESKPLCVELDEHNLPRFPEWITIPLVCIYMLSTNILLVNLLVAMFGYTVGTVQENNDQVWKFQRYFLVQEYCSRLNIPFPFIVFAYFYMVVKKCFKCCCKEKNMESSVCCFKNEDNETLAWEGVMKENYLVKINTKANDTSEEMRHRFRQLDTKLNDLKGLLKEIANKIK
T1 sequence (F1SM15 1-1104): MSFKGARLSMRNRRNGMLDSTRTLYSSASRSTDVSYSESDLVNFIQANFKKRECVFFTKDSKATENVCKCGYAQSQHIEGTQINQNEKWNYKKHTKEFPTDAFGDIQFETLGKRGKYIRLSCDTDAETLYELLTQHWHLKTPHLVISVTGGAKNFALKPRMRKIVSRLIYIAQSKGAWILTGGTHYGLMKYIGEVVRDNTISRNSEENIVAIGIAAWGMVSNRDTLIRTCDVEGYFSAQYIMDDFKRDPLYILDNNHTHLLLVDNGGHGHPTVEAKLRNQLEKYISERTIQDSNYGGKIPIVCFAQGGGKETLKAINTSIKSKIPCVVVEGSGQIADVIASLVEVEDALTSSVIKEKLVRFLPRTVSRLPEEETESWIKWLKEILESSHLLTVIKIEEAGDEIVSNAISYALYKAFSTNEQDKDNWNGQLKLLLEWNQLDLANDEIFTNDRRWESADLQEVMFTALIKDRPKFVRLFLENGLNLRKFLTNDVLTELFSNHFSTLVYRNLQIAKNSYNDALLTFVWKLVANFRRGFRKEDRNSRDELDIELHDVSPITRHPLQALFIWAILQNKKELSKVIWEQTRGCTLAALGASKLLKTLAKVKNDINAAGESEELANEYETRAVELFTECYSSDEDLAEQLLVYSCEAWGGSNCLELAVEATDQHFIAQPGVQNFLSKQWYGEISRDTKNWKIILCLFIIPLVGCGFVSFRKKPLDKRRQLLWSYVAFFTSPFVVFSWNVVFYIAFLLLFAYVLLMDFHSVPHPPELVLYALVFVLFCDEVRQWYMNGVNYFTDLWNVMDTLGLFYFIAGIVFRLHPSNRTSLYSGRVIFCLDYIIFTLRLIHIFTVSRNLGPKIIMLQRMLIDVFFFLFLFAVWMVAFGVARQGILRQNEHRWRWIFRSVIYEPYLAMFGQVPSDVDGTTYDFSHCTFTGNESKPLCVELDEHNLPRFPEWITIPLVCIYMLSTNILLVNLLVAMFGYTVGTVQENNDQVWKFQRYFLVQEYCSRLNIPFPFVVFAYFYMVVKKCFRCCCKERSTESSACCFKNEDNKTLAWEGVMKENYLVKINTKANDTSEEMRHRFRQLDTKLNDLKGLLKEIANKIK

Row | Compound | EC50 [1] [nM] | EC50 [2] [nM]
1 | CC(C)[C@@H]1CC[C@@H](C)C[C@@]1(O)C(=O)N[C@@H](C)CCc1ccc(O)cc1 [Example 168, (1S,2S,5R)-1-hydroxy-N-[(1S)-3-(4-hydroxyphenyl)-1-methyl-propyl]-2-isopropyl-5-methyl-cyclohexanecarboxamide] | 343 | 334
2 | CC(C)[C@@H]1CC[C@@H](C)C[C@@]1(O)C(=O)N[C@@H](CO)Cc1ccccc1 [Example 47, (1S,2S,5R)-1-hydroxy-N-((2R)-1-hydroxy-3-phenylpropan-2-yl)-2-isopropyl-5-methylcyclohexane-1-carboxamide] | 586 | 641
3 | CC(C)[C@@H]1CC[C@@H](C)C[C@@]1(O)C(=O)NCC(=O)c1cc(F)ccc1F [Example 139, (1S,2S,5R)-N-[2-(2,5-difluorophenyl)-2-oxo-ethyl]-1-hydroxy-2-isopropyl-5-methyl-cyclohexanecarboxamide] | 1.7 | 5.3
4 | COc1cc(CCNC(=O)[C@]2(O)C[C@H](C)CC[C@H]2C(C)C)cc(OC)c1 [Example 123, (1S,2S,5R)-N-[2-(3,5-dimethoxyphenyl)ethyl]-1-hydroxy-2-isopropyl-5-methyl-cyclohexanecarboxamide] | 229 | 334
5 | Cc1[nH]c2ccccc2c1CCNC(=O)[C@]1(O)C[C@H](C)CC[C@H]1C(C)C [Example 153, (1S,2S,5R)-1-hydroxy-2-isopropyl-5-methyl-N-[2-(2-methyl-1H-indol-3-yl)ethyl]cyclohexanecarboxamide] | 76 | 130
6 | CC(C)[C@@H]1CC[C@@H](C)C[C@@]1(O)C(=O)NCC(=O)c1c[nH]c2ccccc12 [Example 150, (1S,2S,5R)-1-hydroxy-N-[2-(1H-indol-3-yl)-2-oxo-ethyl]-2-isopropyl-5-methyl-cyclohexanecarboxamide] | 4 | 4
7 | [2H]C(O)(CNC(=O)[C@]1(O)C[C@H](C)CC[C@H]1C(C)C)c1ccccc1 (single isomer, unassigned) [Example 91] | 5.2 | 19
8 | CC(C)[C@@H]1CC[C@@H](C)C[C@@]1(O)C(=O)N[C@H]1COc2ccccc2C1 [Example 95, (1S,2S,5R)—N-((3R)-chroman-3-yl)-1-hydroxy-2-isopropyl-5-methylcyclohexane-1-carboxamide] | 3.1 | 3.6
9 | [2H]C(O)(CNC(=O)[C@]1(O)C[C@H](C)CC[C@H]1C(C)C)c1ccccc1 (single isomer, unassigned) [Example 92] | 2.3 | 4.1
10 | CC(C)[C@@H]1CC[C@@H](C)C[C@@]1(O)C(=O)NCc1cccc(CO)c1 [Example 161, (1S,2S,5R)-1-hydroxy-N-[[3-(hydroxymethyl)phenyl]methyl]-2-isopropyl-5-methyl-cyclohexanecarboxamide] | 516 | 882
11 | CC(C)[C@@H]1CC[C@@H](C)C[C@@]1(O)C(=O)NCC(=O)c1cc(F)cc(F)c1 [Example 138, (1S,2S,5R)-N-[2-(3,5-difluorophenyl)-2-oxo-ethyl]-1-hydroxy-2-isopropyl-5-methyl-cyclohexanecarboxamide] | 1.7 | 3.8
12 | CC(C)[C@@H]1CC[C@@H](C)C[C@@]1(O)C(=O)NCC(=O)c1cccc(O)c1O [Example 104, (1S,2S,5R)—N-(2-(2,3-dihydroxyphenyl)-2-oxoethyl)-1-hydroxy-2-isopropyl-5-methylcyclohexane-1-carboxamide] | 0.6 | 1.1
13 | CC(C)[C@@H]1CC[C@@H](C)C[C@@]1(O)C(=O)NCCc1cccc(S(N)(=O)=O)c1 [Example 133, (1S,2S,5R)-1-hydroxy-2-isopropyl-5-methyl-N-[2-(3-sulfamoylphenyl)ethyl]cyclohexanecarboxamide] | 72.2 | 140
14 | CC(C)[C@@H]1CC[C@@H](C)C[C@@]1(O)C(=O)NCCc1c[nH]c2ccc(O)cc12 [Example 169, (1S,2S,5R)-1-hydroxy-N-[2-(5-hydroxy-1H-indol-3-yl)ethyl]-2-isopropyl-5-methyl-cyclohexanecarboxamide] | 27.4 | 20.9
15 | CC(C)[C@@H]1CC[C@@H](C)C[C@@]1(O)C(=O)NCCc1cc(O)ccc1Br [Example 172, (1S,2S,5R)-N-[2-(2-bromo-5-hydroxy-phenyl)ethyl]-1-hydroxy-2-isopropyl-5-methyl-cyclohexanecarboxamide] | 19 | 9.7
16 | CC(C)[C@@H]1CC[C@@H](C)C[C@@]1(O)C(=O)NCc1c[nH]c2ccccc12 [Example 151] | 126 | 188
17 | CC(C)[C@@H]1CC[C@@H](C)C[C@@]1(O)C(=O)NCCc1nc2ccccc2[nH]1 [Example 8, (1S,2S,5R)—N-(2-(1H-benzo[d]imidazol-2-yl)ethyl)-1-hydroxy-2-isopropyl-5-methylcyclohexane-1-carboxamide 2-hydroxypropane-1,2,3-tricarboxylate] | 713 | 1510
18 | CC(C)[C@@H]1CC[C@@H](C)C[C@@]1(O)C(=O)NCC(O)(c1ccccc1)C(F)(F)F (single isomer, unassigned) [Example 83] | 136 | 168
19 | CC(C)[C@@H]1CC[C@@H](C)C[C@@]1(O)C(=O)NCC(=O)Oc1cc(O)cc(O)c1 [Example 76, 3,5-dihydroxyphenyl ((1S,2S,5R)-1-hydroxy-2-isopropyl-5-methylcyclohexane-1-carbonyl)glycinate] | 365 | 501
20 | Cc1ccccc1CCNC(=O)[C@]1(O)C[C@H](C)CC[C@H]1C(C)C [Example 59, (1S,2S,5R)-1-hydroxy-2-isopropyl-5-methyl-N-(2-methylphenethyl)cyclohexane-1-carboxamide] | 4.3 | 6.2
21 | CC(C)[C@@H]1CC[C@@H](C)C[C@@]1(O)C(=O)NCC(=O)c1ccc(Cl)cc1Cl [Example 137, (1S,2S,5R)-N-[2-(2,4-dichlorophenyl)-2-oxo-ethyl]-1-hydroxy-2-isopropyl-5-methyl-cyclohexanecarboxamide] | 41.6 | 125
22 | CC(C)[C@@H]1CC[C@@H](C)C[C@@]1(O)C(=O)NCC(O)(c1ccccc1)C(F)(F)F (single isomer, unassigned) [Example 82] | 486 | 332
23 | CC(C)[C@@H]1CC[C@@H](C)C[C@@]1(O)C(=O)NC[C@@H](NC(=O)[C@@H](C)N)c1ccccc1 [Example 62, (1S,2S,5R)—N—((S)-2-((R)-2-aminopropanamido)-2-phenylethyl)-1-hydroxy-2-isopropyl-5-methylcyclohexane-1-carboxamide] | 2.3 | 1.6
24 | CC(C)[C@@H]1CC[C@@H](C)C[C@@]1(O)C(=O)NCC(=O)c1ccccc1Cl [Example 140, (1S,2S,5R)-N-[2-(2-chlorophenyl)-2-oxo-ethyl]-1-hydroxy-2-isopropyl-5-methyl-cyclohexanecarboxamide] | 3.3 | 9.4
25 | CC(C)[C@@H]1CC[C@@H](C)C[C@@]1(O)C(=O)NCC(=O)c1ccc(O)c(O)c1 [Example 100, (1S,2S,5R)—N-(2-(3,4-dihydroxyphenyl)-2-oxoethyl)-1-hydroxy-2-isopropyl-5-methylcyclohexane-1-carboxamide] | 2.9 | 2.2
26 | CC(C)[C@@H]1CC[C@@H](C)C[C@@]1(O)C(=O)NC1CCOC1=O (stereo partly drawn) [Example 112, (1S,2S,5R)-1-hydroxy-2-isopropyl-5-methyl-N-(2-oxotetrahydrofuran-3-yl)cyclohexane-1-carboxamide] | 892 | 1580
27 | CC(C)[C@@H]1CC[C@@H](C)C[C@@]1(O)C(=O)NCCc1cccc(CCC(=O)O)c1 [Example 87, 3-(3-(2-((1S,2S,5R)-1-hydroxy-2-isopropyl-5-methylcyclohexane-1-carboxamido)ethyl)phenyl)propanoic acid] | 259 | 982
28 | CC(C)[C@@H]1CC[C@@H](C)C[C@@]1(O)C(=O)N[C@@H](CO)Cc1ccc(O)cc1 [Example 170, (1S,2S,5R)-1-hydroxy-N-[(1R)-1-(hydroxymethyl)-2-(4-hydroxyphenyl)ethyl]-2-isopropyl-5-methyl-cyclohexanecarboxamide] | 60.3 | 37.1
29 | Cc1cccc(C(O)CNC(=O)[C@]2(O)C[C@H](C)CC[C@H]2C(C)C)c1 (stereo partly drawn) [Example 12, (1S,2S,5R)-1-hydroxy-N-(2-hydroxy-2-(m-tolyl)ethyl)-2-isopropyl-5-methylcyclohexane-1-carboxamide] | 2 | 3
